Assay results taken from patent publication US7235534B2, “Antisense strategy to modulate estrogen receptor response (ER α and/or ER β )” (Institut de Cardiologie de Montreal, priority 2001, dated 2007).

B1: PDGF-BB: platelet derived growth factor-BB, agonist in the lower Boyden chamber and MAPK stimulus (protein, UniProt P01127 82-190, looked up)
Platelet-derived growth …: SLGSLTIAEPAMIAECKTRTEVFEISRRLIDRTNANFLVWPPCVEVQRCSGCCNNRNVQCRPTQVQLRPVQVRKIEIVRKKPIFKKATVTLEDHLACKCETVAAARPVT

How the values were obtained:
ERα [1] = assay: Western blot of ERα protein expression in PSMC; type: cell-based, porcine; settings: oligomer 10^−6 mol/L, vs PBS-treated cells
Experimental: (§1) The efficiency and specificity of our antisense sequences to block the targeted protein expression were evaluated by Western blot analysis. Culture medium of confluent PAEC and PSMC (100-mm tissue culture plate) were rinsed with Dulbecco's modified eagle medium (DMEM; Life Technologies Inc., Carlsbad, Calif.) and trypsinized (trypsine-EDTA; Life Technologies). Cells were resuspended in DMEM containing 5% of fetal bovine serum and antibiotics (penicillin and streptomycin, Sigma, St-Louis, Mo.), and a cell count was obtained with a Coulter counter Z1 (Coulter Electronics, Luton, UK). Cells were seeded at 1×10^6 cells/100-mm tissue culture plate (Becton-Dickinson, Rutherford, N.J.), stimulated for 24 h in DMEM, 5% FBS, and antibiotics with or without antisense oligomers (10^−7, 5×10^−7, 10^−6 mol/L) and starved for 48 h in DMEM, 0.1% FBS, and antibiotics with or without antisense oligomers (10^−7, 5×10^−7, 10^−6 mol/L daily) for G0 synchronization. LipofectAnime (5 μg/ml, Life Technology Inc) was used as a transfection reagent only on PSMC. The cells were then grown to confluence for 16 h in DMEM, 5% FBS, and antibiotics with or without antisense oligomers (10^−7, 5×10^−7, 10^−6 mol/L) and starved for 7 h in DMEM, 0.1% FBS, and antibiotics with or without antisense oligomers (10^−7, 5×10^−7, 10^−6 mol/L) to induce an up-regulation of the ER expression. Culture medium was removed, and cells were rinsed twice with ice-cold DMEM. Total proteins were prepared by the addition of 500 μl of lysis buffer containing phenylmethylsulfonyl fluoride 1 mM (Sigma), leupeptin 10 μg/ml (Sigma), aprotinin 30 μg/mi (Sigma), and NaVO3 1 mM (Sigma). Plates were incubated at 4° C. for 30 min and scraped, and the protein concentration was determined with a Bio-Rad protein kit (Bio-Rad, Hercules, Calif.). Same protein quantity for each cell type were dissolved in Laemmli's buffer, boiled for 5 min in reducing conditions, separated by a 10% gradient SDS-PAGE (Protean II kit; Bio-Rad), and transblotted onto a 0.45-μm polyvinylidene difluoride membranes (Millipore Corp., Bedford, Mass.). […]

ERα [2] = assay: Western blot of ERα protein expression in PAEC; type: cell-based, porcine; settings: oligomer 10^−6 mol/L, vs PBS-treated cells
Experimental: as §1

ERβ [3] = assay: Western blot of ERβ protein expression in PSMC; type: cell-based, porcine; settings: oligomer 10^−6 mol/L, vs PBS-treated cells
Experimental: as §1

ERβ [4] = assay: Western blot of ERβ protein expression in PAEC; type: cell-based, porcine; settings: oligomer 10^−6 mol/L, vs PBS-treated cells
Experimental: as §1

[5] = system: Porcine aortic endothelial cells (PAEC); assay: Chemotactic assay on PAEC (modified Boyden chamber); type: cell-based; settings: 5 hrs
Experimental: (§2) Cell migration was evaluated using a modified Boyden 48-well microchamber kit (NeuroProbe, Cabin John, MD.). Near confluent EC and PSMC were rinsed with DMEM and trypsinized. Cells were resuspended in DMEM, 5% FBS, and antibiotics, and a cell count was obtained. […] ER antagonists were added 5 minutes before 17βE. Cells were harvested by trypsinization and resuspended in DMEM, 1% FBS, and antibiotics at a concentration of 5×10^5 cells/ml. […] The two sections of the system were separated by a porous polycarbonate filter (5-μm pores), pre-treated with a gelatine solution (1.5 mg/ml), and assembled. Five hours post incubation at 37° C., the nonmigrated cells were scraped with a plastic policeman, and the migrated cells were stained using a Quick-Diff solution. The filter was then mounted on a glass slide, and migrated cells were counted using a microscope adapted to a video camera to obtain a computer-digitized image.
(§3) Cell migration was evaluated using a modified Boyden 48-well microchamber kit (NeuroProbe, Cabin John, MD.). Near confluent PAEC and PSMC were rinsed with DMEM and trypsinized. Cells were resuspended in DMEM, 5% FBS, and antibiotics, and a cell count was obtained. PAEC and PSMC were seeded at 2.5×10^5 cells/well of 6-well tissue culture plates; stimulated for 24 hours in DMEM, 5% FBS, and antibiotics with or without antisense oligomers (10^−6 mol/L) and starved for 48 hours in DMEM, 0.1% FBS, and antibiotics with or without antisense oligomers (10^−6 mol/L daily) with or without 17βE (10^−8 mol/L). Cells were harvested by trypsinization and resuspended in DMEM, 1% FBS, and antibiotics at a concentration of 5×10^5 cells/mL. Fifty μL of this cell suspension with or without antisense oligomers (10^−6 mol/L) treated with or without 17βE (10^−8 mol/L) was added in the higher-chamber of the modified Boyden chamber apparatus, and the lower chamber was filled with DMEM, 1% FBS, antibiotics plus the desired concentration of agonist either 17βE (10^−8 mol/L) or platelet-derived growth factor-BB (PDGF-BB). The 2 sections of the system were separated by a porous polycarbonate filter (5-μm pores size), pretreated with a gelatine solution (1.5 mg/mL), and assembled. Five hours postincubation at 37° C., the non-migrated cells were scraped with a plastic policeman, and the migrated cells were stained using a Quick-Diff solution (Shandon Inc). The filter was then mounted on a glass slide, and migrated cells were counted using a microscope adapted to a video camera to obtain a computer-digitized image.

[6] = system: Porcine smooth muscle cells (PSMC); assay: Chemotactic assay on PSMC (modified Boyden chamber); type: cell-based; settings: 5 hours
Experimental: as §2, §3

Molecule	inhibition of basal ERα protein expression (ERα [1])	inhibition of basal ERα protein expression (ERα [2])	inhibition of basal ERβ protein expression (ERβ [3])	inhibition of basal ERβ protein expression (ERβ [4])	further results
AS1-ERα: antisense oligonucleotide, phosphothioate backbone, targeting porcine ERα mRNA: 5′-CTC GTT GGC TTG GAT CTG-3′ (antisense CTCGTTGGCTTGGATCTG; DNA, all phosphorothioate, methylation of C not given here)	88%	94%	–	–	–
AS1-ERβ: antisense oligonucleotide, phosphothioate backbone, targeting porcine ERβ mRNA: 5′-GTA GGA GAC AGG AGA GTT-3′ (antisense GTAGGAGACAGGAGAGTT; DNA, all phosphorothioate, methylation of C not given here)	–	–	84%	90%	–
AS2-ERα: antisense oligonucleotide, phosphothioate backbone, targeting porcine ERα mRNA: 5′-GAC GCT TTG GTG TGT AGG-3′ (antisense GACGCTTTGGTGTGTAGG; DNA, all phosphorothioate, methylation of C not given here)	89%	95%	–	–	–
AS2-ERβ: antisense oligonucleotide, phosphothioate backbone, targeting porcine ERβ mRNA: 5′-GCT AAA GGA GAG AGG TGT-3′ (antisense GCTAAAGGAGAGAGGTGT; DNA, all phosphorothioate, methylation of C not given here)	–	–	92%	97%	–
SCR-ERα: scrambled phosphothioate sequence, negative control: 5′-TGT AGC TCG GTT CTG TCG-3′ (TGTAGCTCGGTTCTGTCG; DNA, all phosphorothioate, methylation of C not given here)	no suppressing effect	no suppressing effect	–	–	–
SCR-ERβ: scrambled phosphothioate sequence, negative control: 5′-GAG TGG ACG TGA AGA AGT-3′ (GAGTGGACGTGAAGAAGT; DNA, all phosphorothioate, methylation of C not given here)	–	–	no suppressing effect	no suppressing effect	–
bFGF: basic fibroblast growth factor, chemotactic agonist for PAEC	–	–	–	–	induction of PAEC migration as compared to DMEM 1% ([5]; bFGF 1 ng/ml): 46%; induction of PAEC migration as compared to DMEM 1% ([5]; bFGF 5 ng/ml): 124%; induction of PAEC migration as compared to DMEM 1% ([5]; bFGF 10 ng/ml): 114%
B1	–	–	–	–	induction of PSMC migration as compared to DMEM 1% ([6]; PDGF-BB 1 ng/ml): 96%; induction of PSMC migration as compared to DMEM 1% ([6]; PDGF-BB 5 ng/ml): 137%; induction of PSMC migration as compared to DMEM 1% ([6]; PDGF-BB 10 ng/mL, Example 2): 199%; induction of PSMC migration as compared to DMEM 1% ([6]; PDGF-BB 10 ng/ml, Example 1): 202%
